{
  "source": "patent EP4361137A1",
  "about": "“PRUNE1 INHIBITORS AND THERAPEUTIC USE THEREOF” (CEINGE Biotecnologie Avanzate Franco Salvatore s.c. a r.l., priority 2022, dated 2024)",
  "test_system": "MATH1-Prune1/ TP53-/-",
  "experiment": "Orthotopic implantation of MATH1-Prune1/TP53-/- cells in immunocompetent syngeneic mice, tumor growth",
  "format": "in vivo, FVB WT mice",
  "conditions": "for intracranial tumor growth (bioluminescence, photon emission) / BLI signal from the spinal cord (metastasis): 6 mg/kg/day intraperitoneally for 7 days, T17, HCl salt; for BLI signal from the spinal cord (metastasis): ex vivo",
  "method": "MATH1-Prune1/ TP53-/- were implanted into the right cerebellar hemisphere of female (n.10) immunocompetent syngeneic mice model (5 weeks old, strain: FVB WT) to establish intracerebellar MATH1-Prune1/ TP53-/- models. Mice were anaesthetised with Ketamine/ Xylazine (87.5 mg/kg, 12.5 mg/kg, respectively). The mice were then placed in a stereotactic frame by hooking their incisors onto the frame hold. A small skin incision (length, 1 mm) and a burr hole (diameter, 0.7 mm) were created using a microsurgical drill (Fine Science Tools, Foster City, CA, USA of MATH1-Prune1/ TP53-/- (1.5 ×10^5) were resuspended in 10 µL PBS and injected slowly through the burr hole into the right cerebellar hemisphere (stereotactic coordinates from Bregma: anteroposterior, 5.5 mm; right lateral, 2.1 mm; dorsoventral 5.0 mm), with a steady force over 30 s, using a 10-AL, 26-gauge Hamilton Gastight model 1701RN syringe needle (SigmaAldrich) that was inserted perpendicular to the cranial surface. The incision was sutured using Safil polyglycolic acid synthetic absorbable suture (6/0). The mice were kept on a warming blanket after the surgery, to help them to maintain their body temperature. Their mobility and respiratory patterns were observed continuously, and once the mice had recovered from the anaesthesia; they were place in a sterile housing cage. The mice were monitored daily for development of potential neurological deficits. 10 days after the implantation of the cells, the mice were imaged, and tumour growth was evaluated by bioluminescence acquisition using an imaging system (IVIS 3D Illumina; Xenogen/ Caliper). For the acquisitions, the mice were anaesthetised by inhalational of isoflurane, and the D-luciferin (122799; PerkinElmer) (15 mg/mL stock) was injected intraperitoneally (100 µL per 10 g body weight). At 5 min from the luciferin injection, the mice were imaged for 3 min. To quantify the bioluminescence, the integrated fluxes of photons (p/s) within each area of interest were determined using the Living Images Software Package 3.2 (Xenogen-Perkin Elmer). […] After 17 days from tumour implantation (i.e., after one weeks of LEO-AA7.5(S)T treatment), the mice were sacrificed, and the organs were collected for immunohistochemistry and immunofluorescence analyses.\nParaffin sections of the tumor specimens (thickness, 3 µm) were deparaffinised and rehydrated by immersing the slides in Xylene Substitute (A5597; Sigma), as three washes for 5 min each, then serially in 100%, 95%, 70%, 50%, and 30% ethanol (two washes for 10 min, for each), and deionised water (two washes, for 5 min each). The washes were then followed by PBS, PBS containing 0.02% Triton-X 100 (215680010; Acros Organics), and PBS (two washes for 5 min, for each). For antigen retrieval, the slides were immersed in boiling 10 mM sodium citrate buffer (pH 6.0) using a microwave oven, and then maintained at sub-boiling temperature for 10 min. The slides were left to cool at room temperature for 30 min. The sections were then washed by immersion in distilled water for 5 min. To block endogenous peroxidase activity, the tissue sections were placed in a solution with 3.0% hydrogen peroxide in methanol for 15 min. Then, to decrease the nonspecific background fluorescence, the tissues were digested by treating them with a solution containing 0.2% trypsin (T2600000; Sigma-Aldrich) and 0.001% CaCl2 for 10 min at 37 °C, in a humidified chamber. The slides were then washed in PBS, PBS containing 0.02% Triton-X 100 (215680010; Acros Organics), and PBS (two washes for 5 min, for each). The tissue sections were blocked with 6% bovine serum albumin (A9418; Sigma), 5% fetal bovine serum (ECS0180L; Euroclone), and 20 mM MgCl2 in PBS containing 0.02% Triton-X 100, for 1 h at room temperature, and incubated overnight with the primary antibodies at 4 °C in a humidified chamber. […]",
  "key": {"[1]": {"conditions": "listed as (S)-(1-(4-((4-methoxybenzyl)amino)-1,3,5-triazin-2-yl)piperidin-3-yl)methanol HC"}},
  "note": "Entries after “also recorded” stand apart in the source; their conditions may differ.",
  "data": [
    {"smiles": "COc1ccc(CNc2ncnc(N3CCC[C@H](CO)C3)n2)cc1.Cl", "note": "[LEO-AA7.5(S)T, (S)-(1-(4-((4-methoxybenzyl)amino)-1,3,5-triazin-2-yl)piperidin-3-yl)methanol HCl salt]", "values": [
      {"measurement": "intracranial tumor growth (bioluminescence, photon emission)", "value": "impairment of tumour growth"},
      {"measurement": "intracranial tumor growth (bioluminescence, photon emission)", "setting": "[1]", "value": "significantly decreased; also recorded: anti-tumorigenic action"},
      {"measurement": "BLI signal from the spinal cord (metastasis)", "value": "decrease of metastasis"},
      {"measurement": "BLI signal from the spinal cord (metastasis)", "setting": "[1]", "value": "decreased intensity of BLI signal"},
      {"measurement": "immunosuppressive T cells (CD4+PD1+FOXP3+ and CD8+PD1+FOXP3+) in the tumor microenvironment", "setting": "6 mg/kg/day, immunofluorescence of cerebellar tumor sections", "value": "reduced"}
    ]}
  ]
}
